Laboratory results as given in ChEMBL document CHEMBL3091387, “DPMA, a deoxypodophyllotoxin derivative, induces apoptosis and anti-angiogenesis in non-small cell lung cancer A549 cells” (Bioorg Med Chem Lett, 2013).
The source made the active and inactive calls. No cut-off for these calls is given here.

How the values were obtained:
[1] = test system: A549; experiment: Induction of apoptosis in human A549 cells assessed as early apoptotic cells at 5 uM after 24 hrs by annexin V-FITC/propidium iodide staining-based flow cytometric analysis (reference value: 0.18%); type: functional
[2] = test system: A549; experiment: Induction of apoptosis in human A549 cells assessed as increase in apoptotic cells after 24 hrs by annexin V-FITC/propidium iodide staining-based flow cytometric analysis; type: functional, cell-based
[3] = test system: A549; experiment: Induction of apoptosis in human A549 cells assessed as cell shrinkage at 0.5 to 1 uM after 48 hrs by Hoechst 33258 staining-based phase contrast microscopic analysis; type: functional
[4] = test system: A549; experiment: Induction of apoptosis in human A549 cells assessed as late apoptotic cells at 0.5 uM after 24 hrs by annexin V-FITC/propidium iodide staining-based flow cytometric analysis (reference value: 0.65%); type: functional
[5] = test system: A549; experiment: Upregulation of p53 protein expression in human A549 cells by Western blot analysis; type: functional, cell-based; details: TDE = time-dependent effect
[6] = test system: A549; experiment: Induction of ROS generation in human A549 cells after 24 hrs by DCFH-DA dye-based laser confocal microscopic analysis; type: functional, cell-based
[7] = test system: A549; experiment: Downregulation of phosphorylated cdc-2 protein expression in human A549 cells by Western blot analysis; type: functional, cell-based; details: TDE = time-dependent effect
[8] = test system: A549; experiment: Upregulation of cdc-2 protein expression in human A549 cells by Western blot analysis; type: functional, cell-based; details: TDE = time-dependent effect
[9] = molecular target: Tubulin (Homo sapiens) (UniProt P68371+Q9H4B7+P0DPH7+P68366+Q13509+Q71U36+P04350+Q3ZCM7+P07437+P68363+Q9BQE3+Q6PEY2+Q13885+Q9BVA1+Q9BUF5); experiment: Binding affinity to tubulin in human A549 cells assessed as inhibition of microtubule network formation at 1 uM after 12 to 36 hrs by indirect immunofluorescence assay; type: cell-based
[10] = test system: A549; experiment: Induction of apoptosis in human A549 cells assessed as early apoptotic cells at 0.5 uM after 24 hrs by annexin V-FITC/propidium iodide staining-based flow cytometric analysis (reference value: 0.18%); type: functional
[11] = test system: A549; experiment: Induction of apoptosis in human A549 cells assessed as inhibition of Bcl-2 protein expression at 1 uM after 24 hrs by immunofluorescence assay; type: functional, cell-based
[12] = test system: A549; experiment: Induction of apoptosis in human A549 cells after 48 hrs by Hoechst 33258 staining-based phase contrast microscopic analysis; type: functional, cell-based
[13] = test system: A549; experiment: Induction of apoptosis in human A549 cells assessed as nuclear condensation dispersed throughout cytoplasm at 1 uM after 36 hrs by DAPI staining-based indirect immunofluorescence assay; type: functional, cell-based
[14] = test system: A549; experiment: Induction of apoptosis in human A549 cells assessed as late apoptotic cells at 1 uM after 24 hrs by annexin V-FITC/propidium iodide staining-based flow cytometric analysis (reference value: 0.65%); type: functional
[15] = test system: A549; experiment: Induction of apoptosis in human A549 cells assessed as late apoptotic cells at 5 uM after 24 hrs by annexin V-FITC/propidium iodide staining-based flow cytometric analysis (reference value: 0.65%); type: functional
[16] = test system: HUVEC; experiment: Antiangiogenic activity in HUVEC assessed as inhibition of VEGF-induced tube formation at 0.5 to 1 uM after 12 hrs by phase contrast inverted microscopic analysis; type: functional, cell-based; details: Homo sapiens
[17] = test system: A549; experiment: Cytotoxicity against human A549 cells assessed as cell viability after 48 hrs by MTT assay; type: functional, cell-based
[18] = test system: A549; experiment: Induction of apoptosis in human A549 cells assessed as nuclear fragmentation at 0.5 to 1 uM after 48 hrs by Hoechst 33258 staining-based phase contrast microscopic analysis; type: functional, cell-based
[19] = test system: A549; experiment: Induction of apoptosis in human A549 cells assessed as increase in cleaved caspase-3 protein expression at 1 uM after 24 hrs by immunofluorescence assay; type: functional, cell-based
[20] = test system: A549; experiment: Induction of apoptosis in human A549 cells assessed as cell shrinkage at 1 uM after 36 hrs by DAPI staining-based indirect immunofluorescence assay; type: functional
[21] = Cytotoxicity activity human MSC assessed as cell viability at 0.01 to 1 uM after 48 hrs by MTT assay
[22] = test system: A549; experiment: Induction of apoptosis in human A549 cells assessed as nuclear fragmentation dispersed throughout cytoplasm at 1 uM after 36 hrs by DAPI staining-based indirect immunofluorescence assay; type: functional, cell-based
[23] = test system: A549; experiment: Induction of apoptosis in human A549 cells at 0.5 to 1 uM by Hoechst 33258 staining-based phase contrast microscopic analysis; type: functional, cell-based; details: TDE = time-dependent effect
[24] = test system: A549; experiment: Induction of apoptosis in human A549 cells at 0.5 to 5 uM by annexin V-FITC/propidium iodide staining-based flow cytometric analysis; type: functional, cell-based; details: TDE = time-dependent effect
[25] = test system: A549; experiment: Induction of apoptosis in human A549 cells assessed as dead cells at 1 uM after 24 hrs by annexin V-FITC/propidium iodide staining-based flow cytometric analysis (reference value: 0.69%); type: functional
[26] = test system: A549; experiment: Induction of apoptosis in human A549 cells assessed as dead cells at 5 uM after 24 hrs by annexin V-FITC/propidium iodide staining-based flow cytometric analysis (reference value: 0.69%); type: functional
[27] = test system: A549; experiment: Induction of apoptosis in human A549 cells assessed as early apoptotic cells at 1 uM after 24 hrs by annexin V-FITC/propidium iodide staining-based flow cytometric analysis (reference value: 0.18%); type: functional
[28] = test system: A549; experiment: Induction of apoptosis in human A549 cells assessed as increase in Bax protein expression at 1 uM after 24 hrs by immunofluorescence assay; type: functional, cell-based
[29] = test system: A549; experiment: Induction of apoptosis in human A549 cells assessed as dead cells at 0.5 uM after 24 hrs by annexin V-FITC/propidium iodide staining-based flow cytometric analysis (reference value: 0.69%); type: functional
[30] = test system: A549; experiment: Upregulation of cyclin B1 protein expression in human A549 cells by Western blot analysis; type: functional, cell-based; details: TDE = time-dependent effect
[31] = test system: A549; experiment: Induction of apoptosis in human A549 cells assessed as nuclear condensation at 0.5 to 1 uM after 48 hrs by Hoechst 33258 staining-based phase contrast microscopic analysis; type: functional, cell-based
[32] = test system: A549; experiment: Cytotoxicity against human A549 cells assessed as cell viability at 0.2 to 1 uM by MTT assay; type: functional, cell-based; details: TDE = time-dependent effect

COc1cc([C@@H]2c3cc4c(cc3C[C@H]3COC(=O)[C@@H]32)OCO4)cc(OC)c1OC(=O)N[C@H](CCSC)C(N)=O
Activity [1]: 18.41% | Activity [2]: Dose-dependent effect | Activity [3]: Active | Activity [4]: 6.11% | Activity [5]: tde | Activity [6]: Dose-dependent effect | Activity [7]: tde | Activity [8]: tde | inhibition [9]: Active | Activity [10]: 6.22% | inhibition [11]: Active | Activity [12]: Dose-dependent effect | Activity [13]: Active | Activity [14]: 13.83% | Activity [15]: 27.54% | inhibition [16]: Active | Activity [17]: Dose-dependent effect | Activity [18]: Active | Activity [19]: Active | Activity [20]: Active | Activity [21]: Non-toxic | Activity [22]: Active | Activity [23]: tde | Activity [24]: tde | Activity [25]: 15.73% | Activity [26]: 23.43% | Activity [27]: 9.28% | Activity [28]: Active | Activity [29]: 2.76% | Activity [30]: tde | Activity [31]: Active | Activity [32]: tde
